Measured values from patent US12319672B2, “Alpha-D-galactopyranoside derivatives” (Idorsia Pharmaceuticals Ltd, priority 2019, dated 2025).

How the values were obtained:
human Gal-3 (hGal-3) = human Gal-3 (hGal-3) (Homo sapiens (Human), UniProt P17931); experiment: Competitive binding assay: binding of biotinylated hGal-3 to microplate-adsorbed asialofetuin (ASF); details: Activity on hGal-3; mean values of several measurements
How it was run: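 Biotin-hGal-3/hGal-1 300-1000 ng/mL + cpd (DMSO dilutions) on ASF-coated plate, 3 h 4° C; wash; SA-HRP 80 ng/mL 1 h 4° C; wash; ABTS. IC50 = mean of several runs. hGal-1 preferably Cys→Ser (all six) mutant.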

human Gal-1 (hGal-1) = experiment: Competitive binding assay: binding of biotinylated hGal-1 to microplate-adsorbed asialofetuin (ASF); details: Activities on hGal-1; mean values of several measurements
human Gal-1 (hGal-1), sequence (P09382 2-135 limits assumed): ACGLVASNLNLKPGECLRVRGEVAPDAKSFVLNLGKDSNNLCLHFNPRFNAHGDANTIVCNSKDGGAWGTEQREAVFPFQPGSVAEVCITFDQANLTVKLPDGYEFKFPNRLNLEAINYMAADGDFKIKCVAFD
How it was run: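 Compounds diluted in DMSO competed with biotinylated hGal-3 or hGal-1 (300-1000 ng/mL) for binding to plate-adsorbed asialofetuin for 3 h at 4° C. Bound galectin was detected with streptavidin-peroxidase (80 ng/mL, 1 h, 4° C) and ABTS substrate; IC50 reported as mean of several measurements.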

human Gal-3 (hGal-3), sequence (P17931 whole entry): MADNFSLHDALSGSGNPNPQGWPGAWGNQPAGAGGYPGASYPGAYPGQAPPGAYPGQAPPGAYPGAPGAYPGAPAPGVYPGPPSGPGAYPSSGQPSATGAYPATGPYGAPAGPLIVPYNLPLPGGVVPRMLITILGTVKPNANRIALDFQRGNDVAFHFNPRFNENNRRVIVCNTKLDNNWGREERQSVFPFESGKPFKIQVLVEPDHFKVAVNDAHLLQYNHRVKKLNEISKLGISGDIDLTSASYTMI

**Q.** How did the IC50 (human Gal-3 (hGal-3)) turn out when `CC(=O)O[C@@H]1[C@@H](n2cc(-c3cc(F)c(F)c(F)c3)nn2)[C@@H](O)[C@@H](CO)O[C@@H]1CC1=NO[C@@H](C2CCN(C(C)=O)CC2)C1` [Example 3.24, (2R,3R,4S,5R,6R)-2-(((R)-5-(1-acetylpiperidin-4-yl)-4,5-dihydroisoxazol-3-yl)methyl)-5-hydroxy-6-(hydroxymethyl)-4-(4-(3,4,5-trifluorophenyl)-1H-1,2,3-triazol-1-yl)tetrahydro-2H-pyran-3-yl acetate] was run?
**A.** 340 nM

**Q.** And the IC50 (human Gal-1 (hGal-1))?
**A.** 9190 nM

**Q.** What does the source list for `CC(=O)O[C@@H]1[C@@H](n2cc(-c3cc(F)c(F)c(F)c3)nn2)[C@@H](O)[C@@H](CO)O[C@@H]1CC1=NO[C@H](C2CCN(C(C)=O)CC2)C1` [Example 3.25, (2R,3R,4S,5R,6R)-2-(((S)-5-(1-acetylpiperidin-4-yl)-4,5-dihydroisoxazol-3-yl)methyl)-5-hydroxy-6-(hydroxymethyl)-4-(4-(3,4,5-trifluorophenyl)-1H-1,2,3-triazol-1-yl)tetrahydro-2H-pyran-3-yl acetate]?
**A.** IC50 (human Gal-3 (hGal-3)): 170 nM; IC50 (human Gal-1 (hGal-1)): 2470 nM

**Q.** `CCOC(=O)N1CCC(c2cc(C[C@H]3O[C@H](CO)[C@H](O)[C@H](n4cc(-c5cc(F)c(F)c(F)c5)nn4)[C@H]3O)no2)CC1` [Example 3.26, ethyl 4-(3-(((2R,3R,4R,5R,6R)-3,5-dihydroxy-6-(hydroxymethyl)-4-(4-(3,4,5-trifluorophenyl)-1H-1,2,3-triazol-1-yl)tetrahydro-2H-pyran-2-yl)methyl)isoxazol-5-yl)piperidine-1-carboxylate] was tested. Which IC50 (human Gal-3 (hGal-3)) did it give?
**A.** 68 nM

**Q.** And the IC50 (human Gal-1 (hGal-1))?
**A.** 930 nM

**Q.** Which IC50 (human Gal-3 (hGal-3)) does the source give for `CCNC(=O)N1CCC(c2cc(C[C@H]3O[C@H](CO)[C@H](O)[C@H](n4cc(-c5cc(F)c(F)c(F)c5)nn4)[C@H]3O)no2)CC1` [Example 3.27, 4-(3-(((2R,3R,4R,5R,6R)-3,5-dihydroxy-6-(hydroxymethyl)-4-(4-(3,4,5-trifluorophenyl)-1H-1,2,3-triazol-1-yl)tetrahydro-2H-pyran-2-yl)methyl)isoxazol-5-yl)-N-ethylpiperidine-1-carboxamide] here?
**A.** 32 nM

**Q.** And the IC50 (human Gal-1 (hGal-1))?
**A.** 870 nM

**Q.** What does the source list for `CS(=O)(=O)N1CCC(c2cc(C[C@H]3O[C@H](CO)[C@H](O)[C@H](n4cc(-c5cc(F)c(F)c(F)c5)nn4)[C@H]3O)no2)CC1` [Example 3.28, (2R,3R,4R,5R,6R)-2-(hydroxymethyl)-6-((5-(1-(methylsulfonyl)piperidin-4-yl)isoxazol-3-yl)methyl)-4-(4-(3,4,5-trifluorophenyl)-1H-1,2,3-triazol-1-yl)tetrahydro-2H-pyran-3,5-diol]?
**A.** IC50 (human Gal-3 (hGal-3)): 38 nM; IC50 (human Gal-1 (hGal-1)): 1230 nM

**Q.** For `CN1CCC(c2cc(C[C@H]3O[C@H](CO)[C@H](O)[C@H](n4cc(-c5cc(F)c(F)c(F)c5)nn4)[C@H]3O)no2)CC1` [Example 3.29, (2R,3R,4R,5R,6R)-2-(hydroxymethyl)-6-((5-(1-methylpiperidin-4-yl)isoxazol-3-yl)methyl)-4-(4-(3,4,5-trifluorophenyl)-1H-1,2,3-triazol-1-yl)tetrahydro-2H-pyran-3,5-diol], which IC50 (human Gal-3 (hGal-3)) is on record?
**A.** 270 nM

**Q.** And the IC50 (human Gal-1 (hGal-1))?
**A.** 15800 nM

**Q.** Which results are given for `CC(C)(C)C(=O)N1CCC(c2cc(C[C@H]3O[C@H](CO)[C@H](O)[C@H](n4cc(-c5cc(F)c(F)c(F)c5)nn4)[C@H]3O)no2)CC1` [Example 3.30, 1-(4-(3-(((2R,3R,4R,5R,6R)-3,5-dihydroxy-6-(hydroxymethyl)-4-(4-(3,4,5-trifluorophenyl)-1H-1,2,3-triazol-1-yl)tetrahydro-2H-pyran-2-yl)methyl)isoxazol-5-yl)piperidin-1-yl)-2,2-dimethylpropan-1-one]?
**A.** IC50 (human Gal-3 (hGal-3)): 160 nM; IC50 (human Gal-1 (hGal-1)): 3620 nM

**Q.** What does the source list for `CCOC(=O)N1CCC(c2cc(C[C@H]3O[C@H](CO)[C@H](O)[C@H](n4cc(-c5cc(F)c(F)c(F)c5)nn4)[C@H]3OC)no2)CC1` [Example 3.31, ethyl 4-(3-(((2R,3R,4S,5R,6R)-5-hydroxy-6-(hydroxymethyl)-3-methoxy-4-(4-(3,4,5-trifluorophenyl)-1H-1,2,3-triazol-1-yl)tetrahydro-2H-pyran-2-yl)methyl)isoxazol-5-yl)piperidine-1-carboxylate]?
**A.** IC50 (human Gal-3 (hGal-3)): 73 nM; IC50 (human Gal-1 (hGal-1)): 850 nM

**Q.** With `COC(=O)N1CCC(c2cc(C[C@H]3O[C@H](CO)[C@H](O)[C@H](n4cc(-c5cc(F)c(F)c(F)c5)nn4)[C@H]3OC)no2)CC1` [Example 3.32, methyl 4-(3-(((2R,3R,4S,5R,6R)-5-hydroxy-6-(hydroxymethyl)-3-methoxy-4-(4-(3,4,5-trifluorophenyl)-1H-1,2,3-triazol-1-yl)tetrahydro-2H-pyran-2-yl)methyl)isoxazol-5-yl)piperidine-1-carboxylate] as the molecule, how does the IC50 (human Gal-3 (hGal-3)) read?
**A.** 46 nM

**Q.** And the IC50 (human Gal-1 (hGal-1))?
**A.** 610 nM

**Q.** For `CO[C@@H]1[C@@H](n2cc(-c3cc(F)c(F)c(F)c3)nn2)[C@@H](O)[C@@H](CO)O[C@@H]1Cc1cc(C2CCN(C(=O)C(C)C)CC2)on1` [Example 3.33, 1-(4-(3-(((2R,3R,4S,5R,6R)-5-hydroxy-6-(hydroxymethyl)-3-methoxy-4-(4-(3,4,5-trifluorophenyl)-1H-1,2,3-triazol-1-yl)tetrahydro-2H-pyran-2-yl)methyl)isoxazol-5-yl)piperidin-1-yl)-2-methylpropan-1-one], which IC50 (human Gal-3 (hGal-3)) is on record?
**A.** 65 nM

**Q.** What about the IC50 (human Gal-1 (hGal-1)) of the same molecule?
**A.** 1080 nM

**Q.** With `CO[C@@H]1[C@@H](n2cc(-c3cc(F)c(F)c(F)c3)nn2)[C@@H](O)[C@@H](CO)O[C@@H]1Cc1cc(C2CCN(C(=O)C(C)(C)C)CC2)on1` [Example 3.34, 1-(4-(3-(((2R,3R,4S,5R,6R)-5-hydroxy-6-(hydroxymethyl)-3-methoxy-4-(4-(3,4,5-trifluorophenyl)-1H-1,2,3-triazol-1-yl)tetrahydro-2H-pyran-2-yl)methyl)isoxazol-5-yl)piperidin-1-yl)-2,2-dimethylpropan-1-one] as the molecule, how does the IC50 (human Gal-3 (hGal-3)) read?
**A.** 120 nM

**Q.** And the IC50 (human Gal-1 (hGal-1))?
**A.** 1510 nM

**Q.** How did the IC50 (human Gal-3 (hGal-3)) turn out when `CCCC(=O)N1CCC(c2cc(C[C@H]3O[C@H](CO)[C@H](O)[C@H](n4cc(-c5cc(F)c(F)c(F)c5)nn4)[C@H]3OC)no2)CC1` [Example 3.35, 1-(4-(3-(((2R,3R,4S,5R,6R)-5-hydroxy-6-(hydroxymethyl)-3-methoxy-4-(4-(3,4,5-trifluorophenyl)-1H-1,2,3-triazol-1-yl)tetrahydro-2H-pyran-2-yl)methyl)isoxazol-5-yl)piperidin-1-yl)butan-1-one] was run?
**A.** 48 nM

**Q.** What about the IC50 (human Gal-1 (hGal-1)) of the same molecule?
**A.** 930 nM

**Q.** Which results are given for `CCNC(=O)N1CCC(c2cc(C[C@H]3O[C@H](CO)[C@H](O)[C@H](n4cc(-c5cc(F)c(F)c(F)c5)nn4)[C@H]3OC)no2)CC1` [Example 3.37, N-ethyl-4-(3-(((2R,3R,4S,5R,6R)-5-hydroxy-6-(hydroxymethyl)-3-methoxy-4-(4-(3,4,5-trifluorophenyl)-1H-1,2,3-triazol-1-yl)tetrahydro-2H-pyran-2-yl)methyl)isoxazol-5-yl)piperidine-1-carboxamide]?
**A.** IC50 (human Gal-3 (hGal-3)): 97 nM; IC50 (human Gal-1 (hGal-1)): 1090 nM

**Q.** What does the source list for `CO[C@@H]1[C@@H](n2cc(-c3cc(F)c(F)c(F)c3)nn2)[C@@H](O)[C@@H](CO)O[C@@H]1Cc1cc(C2CCN(C(=O)NC(C)C)CC2)on1` [Example 3.38, 4-(3-(((2R,3R,4S,5R,6R)-5-hydroxy-6-(hydroxymethyl)-3-methoxy-4-(4-(3,4,5-trifluorophenyl)-1H-1,2,3-triazol-1-yl)tetrahydro-2H-pyran-2-yl)methyl)isoxazol-5-yl)-N-isopropylpiperidine-1-carboxamide]?
**A.** IC50 (human Gal-3 (hGal-3)): 43 nM; IC50 (human Gal-1 (hGal-1)): 450 nM
